Results published in US10184933B2, “Compositions, systems and methods for gene expression noise drug screening and uses thereof” (priority 2013, dated 2019).
Counter-ions that a name gives are not always drawn. Like-named read-outs stand apart in the source and are kept apart here.

Legend:
HIV-1 LTR promoter = assay type: cell-based
[1] = system: latent HIV-1 in JLat 8.6 cells; assay type: cell-based
[2] = Pharmakon 1600 library, 10 uM, 24 hours, FIG. 10

SMILES | identified as variability enhancer (VE) in noise screen (HIV-1 LTR promoter) | synergy in reactivation of HIV-1 latency [1] | identified as variability enhancer (VE) in noise screen (HIV-1 LTR promoter; [2])
CN(C)CCC(c1ccc(Cl)cc1)c1ccccn1 (centres unmarked) [V58, chlorpheniramine maleate] | variability enhancers | synergized | 
O=C(O)CCCc1ccccc1 [V59, phenylbutyric acid] | variability enhancers | synergized | 
C#CCN(C)Cc1ccccc1 [V61, Pargyline hydrochloride] |  | synergized | variability enhancers
CCCc1nc2c(C)cc(-c3nc4ccccc4n3C)cc2n1Cc1ccc(-c2ccccc2C(=O)O)cc1 [V62, telmisartan] |  | synergized | variability enhancers
O=c1[nH]c(=O)n(Cl)c(=O)n1Cl [V63, troclosene potassium] | variability enhancers | synergized | 
Oc1ccc(O)cc1 [V76, hydroquinone] | variability enhancers | synergized | 
CO[C@H]1C[C@H](O[C@@H]2/C(C)=C/C[C@@H]3C[C@@H](C[C@]4(CC[C@H](C)[C@@H](C5CCCCC5)O4)O3)OC(=O)[C@@H]3C=C(C)/C(=N/O)[C@H]4OC/C(=C\C=C\[C@@H]2C)[C@]43O)O[C@@H](C)[C@@H]1O [V77, selamectin] | variability enhancers | synergized | 
N[C@@H](Cc1ccc(O)c(O)c1)C(=O)O [V78, levodopa] |  | synergized | variability enhancers
CC(C)[C@H](N)C(=O)OCC(CO)OCn1cnc2c(=O)nc(N)[nH]c21 (some centres unmarked) [V80, valganciclovir hydrochloride] |  | synergized | variability enhancers
CC(C)NCC(O)c1ccc(NS(C)(=O)=O)cc1 (centres unmarked) [V83, sotalol hydrochloride] |  | synergized | variability enhancers
COc1ccccc1OCCNCC(O)COc1cccc2[nH]c3ccccc3c12 (centres unmarked) [V84, carvedilol] |  | synergized | variability enhancers
O=C(O)[C@H]1/C(=C/CO)O[C@@H]2CC(=O)N21 [V85, clavulanate lithium] |  | synergized | variability enhancers
CNC(C)C(O)c1ccccc1 (centres unmarked) [V87, racephedrine hydrochloride] |  | synergized | variability enhancers
CC(C)(CO)[C@@H](O)C(=O)NCCCO [V90, dexpanthenol] |  | synergized | variability enhancers
CCCc1nc(C)c2c(=O)[nH]c(-c3cc(S(=O)(=O)N4CCN(CC)CC4)ccc3OCC)nn12 [V91, vardenafil hydrochloride] |  | synergized | variability enhancers
COc1ccccc1O [V92, guaiacol] |  | synergized | variability enhancers
COCCCOc1ccnc(C[S+]([O-])c2nc3ccccc3[nH]2)c1C (centres unmarked) [V93, rabeprazole sodium] |  | synergized | variability enhancers
CCC(=O)O[C@]1(C(=O)CCl)[C@@H](C)C[C@H]2[C@@H]3CCC4=CC(=O)C=C[C@]4(C)[C@@]3(F)[C@@H](O)C[C@@]21C [V94, clobetasol propionate] |  | synergized | variability enhancers
COc1c(C)c2c(c(O)c1C/C=C(\C)CCC(=O)O)C(=O)OC2 [V95, mycophenolic acid] |  | synergized | variability enhancers
